Experimental data from patent publication US20210038579A1, “Treatment Of Patients With Classic Fabry Disease” (Amicus Therapeutics, Inc., priority 2018, published 2021).
Residue numbers refer to the chain shown, from its start.

Key:
[1] = Phase 3 study, ERT-naïve Fabry patients: safety analysis and adverse events
Experimental: (§2) Study Design. Following eligibility-baseline assessments (2 months), patients were randomized to Stage 1—6 months of double-blind administration of 150 mg migalastat hydrochloride or placebo every other day. All patients completing Stage 1 were eligible to receive open-label migalastat in Stage 2 (months 6-12) and for an additional year (months 13-24) thereafter. […] Study completers were eligible to enroll in the open-label extension study for up to 5 years.
(§3) Safety Analysis and Adverse Events. Randomized patients receiving ≤1 dose were included in the safety analysis, which comprised vital signs, physical exams, electrocardiograms, clinical labs, and adverse events.

[2] = human, in vivo
Experimental: as §2, §3

[3] = Phase 3 study, ERT-naïve Fabry patients: echocardiography (LVMi); assay type: in vivo, human; details: for mean (SD) change in LVMi: baseline (or month 6) to month 24; for LVMi change: after 24 months of treatment
Experimental: Patient Enrollment. […] Study Design. […] Echocardiography. LVMi, left posterior wall thickness, diastolic, interventricular septum thickness, diastolic and other parameters were assessed through blinded, centralized evaluation. For all outcomes except GL-3 inclusions per kidney interstitial capillary, data are pooled for patients within phenotype subgroups regardless of treatment allocation for the first six months (migalastat or placebo).

[4] = target: T1, α-Gal A mutant form p.Gly260Ala (c.779 G > C) (Homo sapiens, UniProt P06280, G260A); assay: HEK assay: α-Gal A activity in HEK-293 cell lysate with migalastat; assay type: cell-based
T1 construct: expressed in transfected cells; host or cells: HEK-293
T1 sequence (P06280 32-429 G260A): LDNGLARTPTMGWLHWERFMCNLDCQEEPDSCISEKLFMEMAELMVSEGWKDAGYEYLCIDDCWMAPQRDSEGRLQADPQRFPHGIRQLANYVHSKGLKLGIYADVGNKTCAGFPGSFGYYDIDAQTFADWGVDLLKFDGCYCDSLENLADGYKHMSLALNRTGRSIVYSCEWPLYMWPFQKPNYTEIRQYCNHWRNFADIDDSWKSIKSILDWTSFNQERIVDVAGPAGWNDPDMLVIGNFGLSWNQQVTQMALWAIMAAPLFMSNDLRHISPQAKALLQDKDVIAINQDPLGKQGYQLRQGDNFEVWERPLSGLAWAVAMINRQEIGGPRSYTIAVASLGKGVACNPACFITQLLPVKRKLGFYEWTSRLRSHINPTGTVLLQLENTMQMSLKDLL
Outline: (§1)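 Transient HEK-293 expression of mutant α-Gal A; ±migalastat 17 nM–1 mM, 4–5 d; lysate α-Gal A by 4-MU-α-Gal fluorescence or western blot.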

[5] = target: T2, α-Gal A mutant form p.Gly373Ser (c.1117 G > A) (Homo sapiens, UniProt P06280, G373S); assay: as above; assay type: cell-based
T2 construct: expressed in transfected cells; host or cells: HEK-293
T2 sequence (P06280 32-429 G373S): T1 sequence (P06280 32-429 G260A) with A229G, G342S
Outline: as §1

[6] = target: T3, α-Gal A mutant form p.Leu36Trp (c.107 T > G) (Homo sapiens, UniProt P06280, L36W); assay: as above; assay type: cell-based
T3 construct: expressed in transfected cells; host or cells: HEK-293
T3 sequence (P06280 32-429 L36W): T1 sequence (P06280 32-429 G260A) with L5W, A229G
Outline: as §1

[7] = open-label-extension, 6/57 patients
[8] = +10 μM migalastat, HEK-293 cell lysate, mean ± SEM, n = 20
[9] = HEK293, 10 μM migalastat minus baseline, read-out: Absolute increase at 10 μM (% WT)

Q: Which results are given for OC[C@H]1NC[C@H](O)[C@@H](O)[C@H]1O [migalastat]?
A: patients with nasopharyngitis ([1]; Stage 1, 6/34 patients receiving migalastat): 18%; patients with headache ([1]; Stage 1, 12/34 patients receiving migalastat): 35%; patients experiencing serious adverse events ([1]; Stage 1, migalastat group): 2 patients; patients experiencing serious adverse events ([1]; Stage 2): 5 patients; patients with procedural pain (related to kidney biopsies) ([1]; Stage 2, 7/63 patients): 11%; patients with headache ([1]; Stage 2, 9/63 patients): 14%; end-stage renal disease, cardiac death, stroke ([1]; as defined in Banikazemi et al.): no progression to end-stage renal disease, no cardiac death and no stroke; patients who discontinued migalastat due to serious adverse events ([1]; both deemed unrelated to migalastat): Two; serious adverse events assessed as possibly related to migalastat by the investigator ([1]; fatigue and paresthesia, same patient, months 12-24, resolved): Two; adverse events leading to migalastat discontinuation ([1]; human, in vivo): No adverse events led to migalastat discontinuation; vital sign, physical findings, laboratory, and ECG parameters ([1]; human, in vivo): did not reveal any clinically relevant effect; transient ischemic attack ([1]; judged unrelated to migalastat): single case; severity of adverse events ([1]; most adverse events): mild or moderate in severity; patients experiencing serious adverse events ([1]; open-label-extension): 11 patients; patients with (treatment-emergent) proteinuria ([1]; open-label-extension (months 12-24), 9/57 patients): 16%; patients with bronchitis [1, 7]: 11%; patients with headache [1, 7]: 11%; patients in whom 24-hour urine protein remained stable during migalastat treatment ([1]; patients with baseline proteinuria <300 mg/24-h): 23/28; deaths [2]: No deaths were reported; classic male patients with data reporting a reduction in LVMi ([3]; classic male patients, age range 16-61 years): 7/8; mean (SD) change in LVMi ([3]; classic males): −16.7 (18.64) g/m^2; mean (SD) change in LVMi ([3]; other patients): −3.2 (18.66) g/m^2; LVMi change ([3]; overall migalastat-treated population): −7.7 g/m^2; LVMi change ([3]; patients with LVH): −18.6 g/m^2; α-Gal A activity at 10 μM (fold over baseline) ([4]; 10 μM migalastat): 4.84 fold over baseline; +Migalastat α-Gal A activity [4, 8]: 10749 ± 403 nmol/mg/h; +Migalastat α-Gal A activity % WT [4, 8]: 37.4 ± 3.1 % WT; activation at 10 µM [4, 9]: 29.9%; α-Gal A activity at 10 μM (fold over baseline) ([5]; 10 μM migalastat): 3.32 fold over baseline; +Migalastat α-Gal A activity [5, 8]: 5128 ± 288 nmol/mg/h; +Migalastat α-Gal A activity % WT [5, 8]: 15.7 ± 0.8 % WT; activation at 10 µM [5, 9]: 10.9%; α-Gal A activity at 10 μM (fold over baseline) ([6]; 10 μM migalastat): 21.49 fold over baseline; +Migalastat α-Gal A activity [6, 8]: 5182 ± 463 nmol/mg/h; +Migalastat α-Gal A activity % WT [6, 8]: 16.6 ± 2.1 % WT; activation at 10 µM [6, 9]: 15.9%
